In patent publication US7572817B2, “2,5-disubstituted 3-mercaptopentanoic acid” (AstraZeneca AB, priority 2002, dated 2009):

target: T1, carboxypeptidase U (Homo sapiens, UniProt Q96IY4); assay: carboxypeptidase U inhibition assay (Hendriks et al., Clinical Chemistry 31, 1936-1939 (1985)); format: biochemical; conditions: assay of Hendriks, Scharpé and van Sande
T1 sequence (Q96IY4 115-423): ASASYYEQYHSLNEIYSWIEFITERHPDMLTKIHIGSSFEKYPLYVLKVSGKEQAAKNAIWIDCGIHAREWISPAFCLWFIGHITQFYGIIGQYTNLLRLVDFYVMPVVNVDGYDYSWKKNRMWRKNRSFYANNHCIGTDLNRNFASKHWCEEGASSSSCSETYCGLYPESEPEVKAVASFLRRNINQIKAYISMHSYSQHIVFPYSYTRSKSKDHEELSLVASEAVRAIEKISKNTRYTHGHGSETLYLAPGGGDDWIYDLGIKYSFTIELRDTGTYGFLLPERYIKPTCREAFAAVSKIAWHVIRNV
Excerpt: The inhibiting effect of the compounds of the present invention was estimated using the assay described in: Dirk Hendriks, Simon Scharpé and Marc van Sande, Clinical Chemistry, 31, 1936-1939 (1985); and Wei Wang, Dirk F. Hendriks, Simon S. Scharpé, The Journal of Biological Chemistry, 269, 15937-15944 (1994).
The activities of certain Examples in the assay described in: Dirk Hendriks, Simon Scharpé and Marc van Sande, Clinical Chemistry, 31, 1936-1939 (1985) are presented in Table I below.

Question: Nc1ccc(CC(C(=O)O)C(S)CCc2cccc(Cl)c2)cn1 (stereo not shown) [Example 6, 2-[(6-Aminopyridin-3-yl)methyl]-5-(3-chlorophenyl)-3-mercaptopentanoic acid] was tested. Which IC50 did it give?
Answer: 800 nM

Question: Nc1ccc(CC(C(=O)O)C(S)CCc2ccc3c(c2)OCO3)cn1 (stereo not shown) [Example 7, 2-[(6-Aminopyridin-3-yl)methyl]-5-(1,3-benzodioxol-5-yl)-3-mercaptopentanoic acid] was tested. Which IC50 did it give?
Answer: 800 nM

Question: N#CCc1ccc(CCC(S)C(Cc2ccc(N)nc2)C(=O)O)cc1 (stereo not shown) [Example 11, 2-[(6-Aminopyridin-3-yl)methyl]-5-[4-(cyanomethyl)phenyl]-3-mercaptopentanoic acid] was tested. Which IC50 did it give?
Answer: 800 nM

Question: For Nc1ccc(CC(C(=O)O)C(S)CCC2CCCS2)cn1 (stereo not shown) [Example 18, 2-[(6-Aminopyridin-3-yl)methyl]-3-mercapto-5-(tetrahydro-2-thienyl)pentanoic acid], which IC50 is on record?
Answer: 1000 nM

Question: For Nc1ncc(CC(C(=O)O)C(S)CCc2ccccc2)s1 (stereo not shown) [Example 24, 2-[(2-Amino-1,3-thiazol-5-yl)methyl]-3-mercapto-5-phenylpentanoic acid], which IC50 is on record?
Answer: 6300 nM

Question: O=C(O)C(CC1C2CCC1CNC2)C(S)CCc1ccccc1 (stereo not shown) [Example 25, 2-(3-Azabicyclo[3.2.1]oct-8-ylmethyl)-3-mercapto-5-phenylpentanoic acid] was tested. Which IC50 did it give?
Answer: 4000 nM

Question: How did the IC50 turn out when Nc1ccc(CC(C(=O)O)C(S)CCc2cccc(C(=O)N3CCc4ccccc4C3)c2)cn1 (stereo not shown) [Example 28, 2-[(6-Aminopyridin-3-yl)methyl]-5-[3-(3,4-dihydroisoquinolin-2(1H)-ylcarbonyl)phenyl]-3-mercaptopentanoic acid] was run?
Answer: 800 nM

Question: For Nc1ccc(CC(C(=O)O)C(S)CCc2cccc(C(=O)OCCc3c(Cl)cccc3Cl)c2)cn1 (stereo not shown) [Example 31, 2-[(6-Aminopyridin-3-yl)methyl]-5-(3-{[2-(2,6-dichlorophenyl)ethoxy]carbonyl}phenyl)-3-mercaptopentanoic acid], which IC50 is on record?
Answer: 600 nM

Question: For Nc1ccc(CC(C(=O)O)C(S)CCc2cccc(C(=O)NCCF)c2)cn1 (stereo not shown) [Example 33, 2-[(6-Aminopyridin-3-yl)methyl]-5-(3-{[(2-fluoroethyl)amino]carbonyl}phenyl)-3-mercaptopentanoic acid], which IC50 is on record?
Answer: 600 nM

Question: For CN(Cc1ccccc1)C(=O)c1cccc(CCC(S)C(Cc2ccc(N)nc2)C(=O)O)c1 (stereo not shown) [Example 41], which IC50 is on record?
Answer: 600 nM

Question: With Nc1ccc(CC(C(=O)O)C(S)CCc2cccc(C(=O)N3CCCC3)c2)cn1 (stereo not shown) [Example 42, 2-[(6-Aminopyridin-3-yl)methyl]-3-mercapto-5-[3-(pyrrolidin-1-ylcarbonyl)phenyl]pentanoic acid] as the compound, how does the IC50 read?
Answer: 600 nM

Question: CCOC(=O)C1CCN(C(=O)c2cccc(CCC(S)C(Cc3ccc(N)nc3)C(=O)O)c2)CC1 (stereo not shown) [Example 43, 2-[(6-Aminopyridin-3-yl)methyl]-5-(3-{[4-(ethoxycarbonyl)piperidin-1-yl]carbonyl}phenyl)-3-mercaptopentanoic acid] was tested. Which IC50 did it give?
Answer: 2000 nM

Question: CN(CC#N)S(=O)(=O)c1cccc(CCC(S)C(Cc2ccc(N)nc2)C(=O)O)c1 (stereo not shown) [Example 47, 2-[(6-Aminopyridin-3-yl)methyl]-5-(3-{[(cyanomethyl)(methyl)amino]-sulfonyl}phenyl)-3-mercaptopentanoic acid] was tested. Which IC50 did it give?
Answer: 1000 nM
